Data from patent US20140357512A1, “HISTONE DEACETYLASE (HDAC) BIOMARKERS IN MULTIPLE MYELOMA” (priority 2013, published 2014).

System: human myeloma cell line MM.1S
Test: SILAC acetylated-lysine peptide profiling, HDAC inhibitor vs DMSO (light/heavy ratio)
Assay type: cell-based
Source text: An embodiment of the invention comprises utilizing the SILAC method in order to quantitate changes in protein expression between two or more populations of cells. The SILAC method is a technique based on mass spectrometry that detects differences in protein abundance among samples using non-radioactive isotopic labeling. The SILAC method is known in the art, and described in detail in Ong et al., “Stable Isotope Labeling by Amino Acids in Cell Culture, SILAC, as a Simple and Accurate Approach to Expression Proteomics”, Molecular & Cellular Proteomics, vol. 1, pp. 376-386 (2002), which is incorporated herein by reference in its entirety.
Briefly, the SILAC method involves growing two populations of cells in cell culture. The first population of cells is grown in growth media containing normal amino acids (“normal media”). The second population of cells is grown in media lacking a standard essential amino acid (such as lysine), but is then supplemented with a non-radioactive, isotopically labeled form of that essential amino acid (such as lysine labeled with ^13C atoms, rather than normal ^12C atoms), which is called “heavy media”. When the two populations of cells are each growing in the medium, they incorporate the amino acids into all of their proteins. The growth of cells maintained in the heavy media is no different from that in normal media. All peptides containing the heavy amino acids are heavier than their normal counterparts. The cells from each of the two populations of cells are lysed. The lysates from each of the two cell populations are then combined. The combined cell lysates are then analyzed by mass spectrometry. Pairs of chemically identical peptides of different stable isotope composition can be differentiated in a mass spectrometer due to their difference in mass. The ratio of peak intensities in the mass spectrum for such peptide pairs reflects the abundance ratio for the two proteins.
This example describes SILAC studies that were performed to compare the effects of three different HDAC inhibitors (Compound A, Compound B, and tubastatin A) to a control on a human multiple myeloma cell line. The HDAC inhibitors were also compared amongst themselves to determine differences in their effects.
A human myeloma cell line MM.1S was grown using either ^12C (light) or ^13C (heavy) lysine containing culture medium. The “heavy” cells were treated with DMSO as the control, and the “light” cells were treated with a single HDAC inhibitor at 37° C. for 6 hours. The heavy and light cells were lysed, and the lysates were mixed in 1:1 ratio and digested with the protease trypsin. The acetylated lysine containing peptides (due to the action of the HDAC inhibitor) in the digested peptide pool were captured by a non-specific anti-acetylated lysine antibody cocktail (the antibodies identify both light and heavy acetylated peptides), and subjected to mass spectrometry analysis in order to identify thousands of individual peptides.
Thousands of peptides were identified in pairs (^12C and ^13C) due to their known mass differences. The amino acid sequence and quantitative ratio (Light/Heavy) of a given peptide in two differentially treated cell lysates were then determined and annotated with their possible protein (gene) sources.
As stated above, three HDAC inhibitors (Compound A, Compound B, and Tubastatin A) were used. Thus, the SILAC method was performed three times, with a different HDAC inhibitor compared to a control each time. Accordingly, there are three pairs of quantitative data in the table below, i.e., Compound A:DMSO, Compound B:DMSO, and Tubastatin A:DMSO. A cut-off of 1.30 fold of change (increase or decrease) was then used to determine “changed” or “+” in the table, and any peptides with a fold of change less than 1.3 fold were determined to be “unchanged” or “0” in the table. Those peptides that were not identified were marked as “NA” in the table. […]

SMILES: CN1CCc2c(c3ccccc3n2Cc2ccc(C(=O)NO)cc2)C1 [Tub A]
- light to heavy ratio (L/H ratio) of acetylated peptide, log 2 scale (NIDPK(ac)PCTPR (SEQ ID NO: 148), Isoform 1 of DAZ-associated protein 1 [83], DAZAP1): 0.80
- L/H ratio of acetylated peptide (NK(ac)WFFQK (SEQ ID NO: 498), 60S ribosomal protein L27 [128], RPL27): 0.00 log 2
- light to heavy ratio (L/H ratio) of acetylated peptide, log 2 scale (NKEEAAEYAK(ac)LLAK (SEQ ID NO: 214), 40S ribosomal protein S6 [211], RPS6): 0.53
- light to heavy ratio (L/H ratio) of acetylated peptide, log 2 scale (NLDK(ac)EYLPIGGLAEFCK (SEQ ID NO: 159), Aspartate aminotransferase mitochondrial [94], GOT2): −0.46
- L/H ratio of acetylated peptide ADKDYHFK(ac)VDNDENEHQLSLR (SEQ ID NO: 61) (NPM1 [32], log 2 scale, drug vs DMSO): −0.64
- L/H ratio of acetylated peptide FINYVK(ac)NCFR (SEQ ID NO: 62) (NPM1 [244], log 2 scale, drug vs DMSO): −0.52
- light to heavy ratio (L/H ratio) of acetylated peptide, log 2 scale (NTILK(ac)AYDGR (SEQ ID NO: 177), Isocitrate dehydrogenase [NADP] mitochondrial [256], IDH2): −0.49
- L/H ratio of acetylated peptide GVTQFGNK(ac)YIQQTKPLTLER (SEQ ID NO: 18) (NUDT21 [23], log 2 scale, drug vs DMSO): 0.50
- light to heavy ratio (L/H ratio) of acetylated peptide, log 2 scale (NVESYTK(ac)LGNPTR (SEQ ID NO: 210), Dolichyl-diphosphooligosaccharide--protein glycosyltransferase subunit 1 precursor [226], RPN1): −0.88
- light to heavy ratio (L/H ratio) of acetylated peptide, log 2 scale (NVTLPAVFK(ac)APIRPDIVNFVHTNLR (SEQ ID NO: 205), 60S ribosomal protein L4 [29], RPL4): −0.48
- L/H ratio of acetylated peptide (NVYK(ac)FELDTSER (SEQ ID NO: 444), Dolichyl-diphosphooligosaccharide--protein glycosyltransferase subunit 2 [460], RPN2): 0.00 log 2
- light to heavy ratio (L/H ratio) of acetylated peptide, log 2 scale (NYEHLFK(ac)VNDK (SEQ ID NO: 192), Mitochondrial import inner membrane translocase subunit TIM16 [82], PAM16): 1.00
- light to heavy ratio (L/H ratio) of acetylated peptide FCLSK(ac)PGVYK (SEQ ID NO: 345) (Nodal modulator 1 [630], NOMO3, NOMO1, drug:DMSO): 0.00 log 2
- L/H ratio of acetylated peptide SGVGNVFIK(ac)NLDK (SEQ ID NO: 63) (PABPC4 [104], log 2 scale, drug vs DMSO): −0.54
- L/H ratio of acetylated peptide YGVSGYPTLK(ac)IFR (SEQ ID NO: 66) (PDIA3 [104], log 2 scale, drug vs DMSO): −0.60
- L/H ratio of acetylated peptide PSHLTNK(ac)FEDK (SEQ ID NO: 65) (PDIA3 [214], log 2 scale, drug vs DMSO): −0.63
- L/H ratio of acetylated peptide GEK(ac)FVMQEEFSR (SEQ ID NO: 64) (PDIA3 [335], log 2 scale, drug vs DMSO): −0.58
- light to heavy ratio (L/H ratio) of acetylated peptide, log 2 scale (PGGPALWGDAFK(ac)R (SEQ ID NO: 189), Protein NipSnap homolog 3A [166], NIPSNAP3A): 0.77
- L/H ratio of acetylated peptide SLLGK(ac)DVLFLK (SEQ ID NO: 67) (PGK1 [91], log 2 scale, drug vs DMSO): 0.38
- L/H ratio of acetylated peptide SIYGEK(ac)FEDENFILK (SEQ ID NO: 68) (PPIA [82], log 2 scale, drug vs DMSO): −0.67
- L/H ratio of acetylated peptide VIFGLFGK(ac)TVPK (SEQ ID NO: 70) (PPIB [67], log 2 scale, drug vs DMSO): −0.44
- L/H ratio of acetylated peptide TVPK(ac)TVDNFVALATGEK (SEQ ID NO: 69) (PPIB [71], log 2 scale, drug vs DMSO): −0.49
- L/H ratio of acetylated peptide VIK(ac)[…] (SEQ ID NO: 71) (PPIB [98], log 2 scale, drug vs DMSO): −0.40
- L/H ratio of acetylated peptide IYGFYDECK(ac)R (SEQ ID NO: 72) (PPP1CC [141], log 2 scale, drug vs DMSO): −0.43
- light to heavy ratio (L/H ratio) of acetylated peptide TAWLDGK(ac)HVVFGK (SEQ ID NO: 592) (Peptidyl-prolyl cis-trans isomerase B [165], gene PPIB, inhibitor:DMSO): 0.00 log 2
- light to heavy ratio (L/H ratio) of acetylated peptide FPDENFK(ac)LK (SEQ ID NO: 347) (Peptidyl-prolyl cis-trans isomerase C [123], PPIC, drug:DMSO): 0.00 log 2
- light to heavy ratio (L/H ratio) of acetylated peptide (ac)AAK(ac)VFESIGK (SEQ ID NO: 277) (Prohibitin [4], PHB, drug:DMSO): 0.39 log 2
- light to heavy ratio (L/H ratio) of acetylated peptide FVVEK(ac)AEQQK (SEQ ID NO: 263) (Prohibitin [202], PHB, drug:DMSO): 0.62 log 2
- light to heavy ratio (L/H ratio) of acetylated peptide GYPTIK(ac)FFR (SEQ ID NO: 541) (Protein disulfide-isomerase [103], gene P4HB, inhibitor:DMSO): 0.00 log 2
- light to heavy ratio (L/H ratio) of acetylated peptide THILLFLPK(ac)SVSDYDGK (SEQ ID NO: 297) (Protein disulfide-isomerase [263], P4HB, drug:DMSO): −0.45 log 2
- light to heavy ratio (L/H ratio) of acetylated peptide SGLLDK(ac)WK (SEQ ID NO: 602) (Signal peptidase complex subunit 2 [38], gene LOC653566, SPCS2, inhibitor:DMSO): 0.00 log 2
- light to heavy ratio (L/H ratio) of acetylated peptide (ac)AEYLASIFGTEK(ac)DK (SEQ ID NO: 283) (Splicing factor U2AF 35 kDa subunit [13], U2AF1, drug:DMSO): 0.60 log 2
- light to heavy ratio (L/H ratio) of acetylated peptide YDDPEVQK(ac)DIK (SEQ ID NO: 578) (Stress-70 protein mitochondrial [135], gene HSPA9, inhibitor:DMSO): 0.00 log 2
- light to heavy ratio (L/H ratio) of acetylated peptide, log 2 scale (TAMK(ac)YNLGLDLR (SEQ ID NO: 158), Glutamate dehydrogenase 1 mitochondrial [527], GLUD1): 0.48
- light to heavy ratio (L/H ratio) of acetylated peptide, log 2 scale (TLNDELEIIEGMK(ac)FDR (SEQ ID NO: 175), 60 kDa heat shock protein mitochondrial [218], HSPD1): −0.45
- light to heavy ratio (L/H ratio) of acetylated peptide, log 2 scale (TPELNLDQFHDK(ac)TPYTIMFGPDK (SEQ ID NO: 139), cDNA FLJ55574 highly similar to Calnexin [217], CANX): −0.48
- light to heavy ratio (L/H ratio) of acetylated peptide, log 2 scale (TPVIVTLK(ac)ENER (SEQ ID NO: 176), Hypoxia up-regulated protein 1 [75], HYOU1): −0.54
- L/H ratio of acetylated peptide INVYYNEATGGK(ac)YVPR (SEQ ID NO: 109) (TUBB2C [58], log 2 scale, drug vs DMSO): −0.43
- L/H ratio of acetylated peptide ILAEGGGAK(ac)FK (SEQ ID NO: 110) (TUFM [91], log 2 scale, drug vs DMSO): −0.61
- L/H ratio of acetylated peptide QIESK(ac)TAFQEALDAAGDK (SEQ ID NO: 111) (TXN [8], log 2 scale, drug vs DMSO): −0.70
- L/H ratio of acetylated peptide VYVAK(ac)VDCTAHSDVCSAQGVR (SEQ ID NO: 113) (TXNDC5, MUTED, MUTED-TXNDC5 [118], log 2 scale, drug vs DMSO): −0.49
- L/H ratio of acetylated peptide LFKPGQEAVK(ac)YQGPR (SEQ ID NO: 112) (TXNDC5, MUTED, MUTED-TXNDC5 [150], log 2 scale, drug vs DMSO): −0.47
- light to heavy ratio (L/H ratio) of acetylated peptide, log 2 scale (TYGEIFEK(ac)FHPIR (SEQ ID NO: 188), NADH dehydrogenase [ubiquinone] 1 subunit C2 [114], NDUFC2): 1.00
- light to heavy ratio (L/H ratio) of acetylated peptide NICSK(ac)YSVR (SEQ ID NO: 256) (Thioredoxin domain-containing protein 5 [390], TXNDC5, MUTED, MUTED-TXNDC5, drug:DMSO): −0.51 log 2
